Results from patent US20200085789A1, “USE OF A PROTEASOME INHIBITOR FOR THE TREATMENT OF CENTRAL NERVOUS SYSTEM (CNS) CANCERS” (Celgene International II Sàrl, priority 2017, published 2020).

Test: Adverse events and dose-limiting toxicity (NCI-CTCAE v 4.03), MRZ ± BEV in recurrent grade IV malignant glioma patients
Type: in vivo, human
Source text: An adverse event (AE) is any noxious, unintended, or untoward medical occurrence that may appear or worsen in a subject during the course of a study. […] Any worsening (i.e., any clinically significant adverse change in the frequency or intensity of a pre-existing condition) should be considered an AE.
The severity/intensity of AEs will be graded based upon the subject's symptoms according to the current active minor version of the Common Terminology Criteria for Adverse Events ( ).

[1] = MRZ 0.7 mg/m^2 + BEV, Cohort 2 (N = 3)
[2] = MRZ 0.8 mg/m^2 + BEV, Cohorts 3 & 4 (N = 27)
[3] = MRZ 0.8 mg/m^2, + BEV N = 27, Monotherapy N = 30
[4] = MRZ 0.8 mg/m^2 Monotherapy (N = 30)

C[C@@]12OC(=O)[C@]1([C@@H](O)[C@@H]1C=CCCC1)NC(=O)[C@@H]2CCCl [MRZ, marizomib]
Grade ≥3 Ataxia related to the labelled drug, patients [1]: 0 | Grade ≥3 Confusional State related to the labelled drug, patients [1]: 0 | Grade ≥3 Delusion related to the labelled drug, patients [1]: 0 | Grade ≥3 Dyspnea related to the labelled drug, patients [1]: 0 | Grade ≥3 Embolism related to the labelled drug, patients [1]: 0 | Grade ≥3 Fall related to the labelled drug, patients [1]: 0 | Grade ≥3 Fatigue related to the labelled drug, patients [1]: 0 | Grade ≥3 Hallucination related to the labelled drug, patients [1]: 0 | Grade ≥3 Headache related to the labelled drug, patients [1]: 0 | Grade ≥3 Hypertension related to the labelled drug, patients [1]: 0 | Grade ≥3 Hyponatremia related to the labelled drug, patients [1]: 0 | Grade ≥3 Insomnia related to the labelled drug, patients [1]: 0 | Grade ≥3 Intracranial Hemorrhage related to the labelled drug, patients [1]: 0 | Grade ≥3 Optic Nerve Disorder related to the labelled drug, patients [1]: 0 | Grade ≥3 Proteinuria related to the labelled drug, patients [1]: 0 | Grade ≥3 Ataxia related to the labelled drug, patients [2]: 1 | Grade ≥3 Confusional State related to the labelled drug, patients [2]: 0 | Grade ≥3 Delusion related to the labelled drug, patients [2]: 1 | Grade ≥3 Dyspnea related to the labelled drug, patients [2]: 1 | Grade ≥3 Embolism related to the labelled drug, patients [2]: 0 | Grade ≥3 Fall related to the labelled drug, patients [2]: 1 | Grade ≥3 Fatigue related to the labelled drug, patients [2]: 1 | Grade ≥3 Hallucination related to the labelled drug, patients [2]: 1 | Grade ≥3 Headache related to the labelled drug, patients [2]: 3 | Grade ≥3 Hypertension related to the labelled drug, patients [2]: 0 | Grade ≥3 Hyponatremia related to the labelled drug, patients [2]: 1 | Grade ≥3 Insomnia related to the labelled drug, patients [2]: 1 | Grade ≥3 Intracranial Hemorrhage related to the labelled drug, patients [2]: 0 | Grade ≥3 Optic Nerve Disorder related to the labelled drug, patients [2]: 0 | Grade ≥3 Proteinuria related to the labelled drug, patients [2]: 0 | Anaemia [3]: (20.0%) | Anaemia, patients [3]: 6 | Ataxia [3]: (20.0%) | Ataxia, patients [3]: 6 | Confusional state [3]: (23.3%) | Confusional state, patients [3]: 7 | Constipation [3]: (30.0%) | Constipation, patients [3]: 9 | Diarrhoea [3]: (23.3%) | Diarrhoea, patients [3]: 7 | Dizziness [3]: (16.7%) | Dizziness, patients [3]: 5 | Dysarthria [3]: (16.7%) | Dysarthria, patients [3]: 5 | Dysphonia [3]: (3.3%) | Dysphonia, patients [3]: 1 | Epistaxis [3]: (6.7%) | Epistaxis, patients [3]: 2 | Fall [3]: (13.3%) | Fall, patients [3]: 4 | Fatigue [3]: (63.3%) | Fatigue, patients [3]: 19 | Hallucination [3]: (40.0%) | Hallucination, patients [3]: 12 | Headache [3]: (40.0%) | Headache, patients [3]: 12 | Hyperglycaemia [3]: (27.6%) | Hyperglycaemia, patients [3]: 8 | Hypertension [3]: (13.3%) | Hypertension, patients [3]: 4 | Hypokalemia [3]: (27.6%) | Hypokalemia, patients [3]: 8 | Infusion site pain [3]: (10.0%) | Infusion site pain, patients [3]: 3 | Insomnia [3]: (46.7%) | Insomnia, patients [3]: 14 | Nausea [3]: (36.7%) | Nausea, patients [3]: 11 | Platelet count decreased [3]: (23.3%) | Platelet count decreased, patients [3]: 7 | Vomiting [3]: (30.0%) | Vomiting, patients [3]: 9 | Anaemia MRZ Related [4]: (16.7% | Anaemia MRZ Related, patients [4]: 5 | Ataxia MRZ Related [4]: (16.7%) | Ataxia MRZ Related, patients [4]: 5 | Confusional state MRZ Related [4]: (20.0%) | Confusional state MRZ Related, patients [4]: 6 | Constipation MRZ Related [4]: (20.0%) | Constipation MRZ Related, patients [4]: 6 | Diarrhoea MRZ Related [4]: (23.3) % | Diarrhoea MRZ Related, patients [4]: 7 | Dizziness MRZ Related [4]: (10.0%) | Dizziness MRZ Related, patients [4]: 3 | Dysphonia MRZ Related, patients [4]: 0 | Epistaxis MRZ Related [4]: (3.3%) | Epistaxis MRZ Related, patients [4]: 1 | Fall MRZ Related [4]: (3.3%) | Fall MRZ Related, patients [4]: 1 | Fatigue MRZ Related [4]: (60.0%) | Fatigue MRZ Related, patients [4]: 18 | Hallucination MRZ Related [4]: (36.7%) | Hallucination MRZ Related, patients [4]: 11 | Headache MRZ Related [4]: (36.7%) | Headache MRZ Related, patients [4]: 11 | Hypertension MRZ Related [4]: 93.3%) | Hypertension MRZ Related, patients [4]: 1 | Infusion site pain MRZ Related [4]: (6.7%) | Infusion site pain MRZ Related, patients [4]: 2 | Muscular weakness MRZ Related, patients [4]: 0 | Nausea MRZ Related [4]: (30.0%) | Nausea MRZ Related, patients [4]: 9 | Platelet count decreased MRZ Related, patients [4]: 0 | Stomatitis MRZ Related, patients [4]: 0 | Upper-airway cough syndrome MRZ Related, patients [4]: 0 | Vomiting MRZ Related [4]: (23.3) % | Vomiting MRZ Related, patients [4]: 7 | Anemia: patients, Total (Part 1 N = 36, Part 2 N = 30): 6 | Anemia: patients, worst Grade 1 (Part 1 N = 36, Part 2 N = 30): 5 | Anemia: patients, worst Grade 2 (Part 1 N = 36, Part 2 N = 30): 1 | Ataxia: patients, Total (Part 1 N = 36, Part 2 N = 30): 8 | Ataxia: patients, worst Grade 1 (Part 1 N = 36, Part 2 N = 30): 3 | Ataxia: patients, worst Grade 2 (Part 1 N = 36, Part 2 N = 30): 5 | Confusional State: patients, Total (Part 1 N = 36, Part 2 N = 30): 7 | Confusional State: patients, worst Grade 1 (Part 1 N = 36, Part 2 N = 30): 3 | Confusional State: patients, worst Grade 2 (Part 1 N = 36, Part 2 N = 30): 4 | Constipation: patients, Total (Part 1 N = 36, Part 2 N = 30): 10 | Constipation: patients, worst Grade 1 (Part 1 N = 36, Part 2 N = 30): 10 | Diarrhea: patients, Total (Part 1 N = 36, Part 2 N = 30): 7 | Diarrhea: patients, worst Grade 1 (Part 1 N = 36, Part 2 N = 30): 6 | Diarrhea: patients, worst Grade 3 (Part 1 N = 36, Part 2 N = 30): 1 | Dizziness: patients, Total (Part 1 N = 36, Part 2 N = 30): 5 | Dizziness: patients, worst Grade 1 (Part 1 N = 36, Part 2 N = 30): 4 | Dizziness: patients, worst Grade 2 (Part 1 N = 36, Part 2 N = 30): 1 | Dysphonia: patients, Total (Part 1 N = 36, Part 2 N = 30): 1 | Dysphonia: patients, worst Grade 1 (Part 1 N = 36, Part 2 N = 30): 1 | Epistaxis: patients, Total (Part 1 N = 36, Part 2 N = 30): 2 | Epistaxis: patients, worst Grade 1 (Part 1 N = 36, Part 2 N = 30): 2 | Fall: patients, Total (Part 1 N = 36, Part 2 N = 30): 4 | Fall: patients, worst Grade 1 (Part 1 N = 36, Part 2 N = 30): 3
